From ChEMBL document CHEMBL1800032, “Allosteric and ATP-competitive kinase inhibitors of mTOR for cancer treatment” (Bioorg Med Chem Lett, 2010)

Target: Serine/threonine-protein kinase mTOR (Homo sapiens, UniProt P42345)
Assay: Inhibition of recombinant mTOR assessed as inhibition of S6K T389 phosphorylation by DELFIA assay

SMILES: COC(=O)Nc1ccc(-c2nc(N3CCOCC3)c3cnn(C4CCN(C(=O)OC)CC4)c3n2)cc1
- IC50: 5 nM
